MIC and inhibition of growth data for 18 compounds are collected here from US8889727B2, “Topical antifungal agent” (Meiji Seika Pharma Co., Ltd., priority 2011, dated 2014).

≈ marks a conversion by molar mass, not a printed value.

The first assay relates to T. mentagrophytes ATCC18748. As to the kind of experiment: Measurement of antifungal activity (MIC, WST8 growth inhibition). It counts as cell-based. Particulars: Trichophyton mentagrophytes, 72 h; 80% growth inhibition concentration; T. mentagrophytes ATCC18748, RPMI1640/MOPS, 28° C., 3 days. As to the method:
(§1) The compounds for evaluation were dissolved in dimethyl sulfoxide (DMSO) and used. As the test medium, RPMI1640 medium containing 0.165 M 3-morpholino propane sulfonic acid (MOPS) was used. As the test strain, T. mentagrophytes ATCC18748 or T. rubrum ATCC10218 was used. 100 μL of the test strain each at a concentration of 1×10^4 conidia/mL was dispensed, mixed with compounds for evaluation on 96 well half area plate so that the concentration of DMSO becomes 1%, and cultured at 28° C. for 3 days (for T. mentagrophytes) or for 4 days (for T. rubrum). Then, 5 μL of Cell Counting Kit8 (WST8) was added and the absorbances at 450 nm and 595 nm was measured as background. Subsequently, they were incubated at 28° C. for 5 hours (for T. mentagrophytes) or overnight (for T. rubrum) to color, and again the absorbances at 450 nm and 595 nm was measured, and then calculated the growth inhibition percentages using the differences from the background, and 80% growth inhibition concentration was regarded as MIC (μg/ml). Measurement of antifungal activity was conducted by the following method. Compounds for evaluation were dissolved in dimethyl sulfoxide (DMSO) and used. As the test medium, RPMI1640 medium containing 0.165 M 3-morpholinopropane sulfonic acid (MOPS) was used. As the test strain, T. mentagrophytes ATCC18748 or T. rubrum ATCC10218 was used. 100 μL of the test strain was dispensed at a concentration of 1×10^4 conidia/mL, mixed with compounds for evaluation on 96 well half area plate so that the concentration of DMSO becomes 1%, and cultured at a culture temperature of 28° C. for 3 days (for T. mentagrophytes) or for 4 days (for T. rubrum). Then, 5 μL of Cell Counting Kit8 (WST8) was added and the absorbances at 450 nm and 595 nm was measured as background. Subsequently, they were incubated at 28° C. for 5 hours (for T. mentagrophytes) or overnight (for T. rubrum), and again measured the absorbances at 450 nm and 595 nm was measured, and then calculated the growth inhibition percentages using the differences from the background, and 80% growth inhibition concentration was regarded as MIC (μg/ml).
Background: Tetrazolium dyes change colour on reduction, which living cells bring about.
As usually defined, the MIC is the lowest concentration that inhibits growth of the organism. Turning to `Cc1ccc(-n2nc(C)cc2C)c(O)c1` [Example 44, 2-(3,5-Dimethyl-1H-pyrazol-1-yl)-5-methylphenol], the MIC was at most 1 µg/mL.

With `COc1ccc(-n2nc(C)cc2C)c(O)c1` [Example 45, 2-(3,5-Dimethyl-1H-pyrazol-1-yl)-5-methoxyphenol], the MIC is at most 1 µg/mL.

Usually inhibition of growth stands for the percentage by which the read-out fell short of the control. A lower inhibition of growth goes with a weak effect. Consider `Cc1cc(C)n(-c2c(C)cccc2O)n1` [Example 46, 2-(3,5-Dimethyl-1H-pyrazol-1-yl)-3-methylphenol], for which the inhibition of growth at 32 µg/mL was under 50%.

In turn, `Cc1cc(C)n(-c2ccc(CO)cc2O)n1` [Example 47, 2-(3,5-Dimethyl-1H-pyrazol-1-yl)-5-hydroxymethylphenol] came in with an MIC of 2 to 8 µg/mL (≈ 9.16 to 36.7 µM).

Regarding `CNc1ccc(-n2nc(C)cc2C)c(O)c1` [Example 48, 2-(3,5-Dimethyl-1H-pyrazol-1-yl)-5-methylaminophenol], the MIC was in the range of 2 to 8 µg/mL (≈ 9.21 to 36.8 µM).

In the case of `Cc1ccc(O)c(-n2nc(C)cc2C)c1` [Example 49, 2-(3,5-Dimethyl-1H-pyrazol-1-yl)-4-methylphenol], the inhibition of growth at 32 µg/mL was under 50%.

With `Cc1cc(C)n(-c2ccc(C(F)(F)F)cc2O)n1` [Example 50, 2-(3,5-Dimethyl-1H-pyrazol-1-yl)-5-trifluoromethylphenol], the MIC is 2 to 8 µg/mL (≈ 7.81 to 31.2 µM).

Compound `Cc1cc(C)n(-c2cccc(C)c2O)n1` [Example 51, 2-(3,5-dimethyl-1H-pyrazol-1-yl)-6-methylphenol] had an inhibition of growth at 32 µg/mL of under 50%.

On to `CCc1ccc(-n2nc(C)cc2C)c(O)c1` [Example 52, 2-(3,5-dimethyl-1H-pyrazol-1-yl)-5-ethylphenol], for which the MIC was at most 1 µg/mL.

`Cc1nn(-c2ccccc2O)c(C)c1F` [Example 53, 2-(4-Fluoro-3,5-dimethyl-1H-pyrazol-1-yl)phenol] registered an MIC of 2 to 8 µg/mL (≈ 9.7 to 38.8 µM).

`Cc1cc(C)n(-c2ccc(Br)cc2O)n1` [Example 54, 5-bromo-2-(3,5-dimethyl-1H-pyrazol-1-yl)phenol] displayed an MIC of at most 1 µg/mL.

For the compound `Cc1nn(-c2ccc(Br)cc2O)c(C)c1Cl` [Example 55, 5-bromo-2-(4-chloro-3,5-dimethyl-1H-pyrazol-1-yl)phenol], the MIC was at most 1 µg/mL.

For the compound `Cc1nn(-c2ccc(Br)cc2O)c(C)c1C` [Example 56, 5-bromo-2-(3,4,5-trimethyl-1H-pyrazol-1-yl)phenol], the MIC was at most 1 µg/mL.

The compound `CC(=O)Oc1ccc(-n2nc(C)cc2C)c(O)c1` [Example 57, 4-(3,5-dimethyl-1H-pyrazol-1-yl)-3-hydroxyphenyl acetate] had an MIC of 2 to 8 µg/mL.

Consider `CC(=O)Oc1ccc(-n2nc(C)c(Cl)c2C)c(O)c1` [Example 58, 4-(4-chloro-3,5-dimethyl-1H-pyrazol-1-yl)-3-hydroxyphenyl acetate], for which the MIC was in the range of 2 to 8 µg/mL.

Compound `CC(=O)Oc1ccc(-n2nc(C)c(C)c2C)c(O)c1` [Example 59, 3-hydroxy-4-(3,4,5-trimethyl-1H-pyrazol-1-yl)phenyl acetate] came in with an MIC of 2 to 8 µg/mL.

`Cc1cc(C)n(-c2cc(Cl)c(C)cc2O)n1` [Example 61, 4-chloro-2-(3,5-dimethyl-1H-pyrazol-1-yl)-5-methylphenol]: the MIC lay in the range of 16 to 32 µg/mL (≈ 67.6 to 135 µM).

Compound `Cc1nn(-c2ccc(O)cc2O)c(C)c1Cl` [Example 63, 4-(4-chloro-3,5-dimethyl-1H-pyrazol-1-yl)benzene-1,3-diol] displayed an MIC of at most 1 µg/mL.

For another assay, the system named is T. rubrum ATCC10218. The description is as above. The class given is cell-based. The note with it: Trichophyton rubrum, 96 h; 80% growth inhibition concentration; T. rubrum ATCC10218, RPMI1640/MOPS, 28° C., 4 days. As to the method:
as §1
For `Cc1ccc(-n2nc(C)cc2C)c(O)c1` [Example 44, 2-(3,5-Dimethyl-1H-pyrazol-1-yl)-5-methylphenol], the MIC is at most 2 µg/mL.

Take `COc1ccc(-n2nc(C)cc2C)c(O)c1` [Example 45, 2-(3,5-Dimethyl-1H-pyrazol-1-yl)-5-methoxyphenol]: the MIC was at most 2 µg/mL.

Compound `Cc1cc(C)n(-c2c(C)cccc2O)n1` [Example 46, 2-(3,5-Dimethyl-1H-pyrazol-1-yl)-3-methylphenol] displayed an MIC of 32 to 64 µg/mL (≈ 158 to 316 µM).

With `Cc1cc(C)n(-c2ccc(CO)cc2O)n1` [Example 47, 2-(3,5-Dimethyl-1H-pyrazol-1-yl)-5-hydroxymethylphenol], the MIC was 4 to 16 µg/mL (≈ 18.3 to 73.3 µM).

With `CNc1ccc(-n2nc(C)cc2C)c(O)c1` [Example 48, 2-(3,5-Dimethyl-1H-pyrazol-1-yl)-5-methylaminophenol], the MIC lay in the range of 4 to 16 µg/mL (≈ 18.4 to 73.6 µM).

`Cc1ccc(O)c(-n2nc(C)cc2C)c1` [Example 49, 2-(3,5-Dimethyl-1H-pyrazol-1-yl)-4-methylphenol] displayed an MIC of 32 to 64 µg/mL (≈ 158 to 316 µM).

With `Cc1cc(C)n(-c2ccc(C(F)(F)F)cc2O)n1` [Example 50, 2-(3,5-Dimethyl-1H-pyrazol-1-yl)-5-trifluoromethylphenol], the MIC is 4 to 16 µg/mL (≈ 15.6 to 62.4 µM).

Consider `Cc1cc(C)n(-c2cccc(C)c2O)n1` [Example 51, 2-(3,5-dimethyl-1H-pyrazol-1-yl)-6-methylphenol], for which the MIC was 32 to 64 µg/mL (≈ 158 to 316 µM).

The compound `CCc1ccc(-n2nc(C)cc2C)c(O)c1` [Example 52, 2-(3,5-dimethyl-1H-pyrazol-1-yl)-5-ethylphenol] showed an MIC of at most 2 µg/mL.

As to `Cc1nn(-c2ccccc2O)c(C)c1F` [Example 53, 2-(4-Fluoro-3,5-dimethyl-1H-pyrazol-1-yl)phenol], the MIC fell in the range of 4 to 16 µg/mL (≈ 19.4 to 77.6 µM).

Take `Cc1cc(C)n(-c2ccc(Br)cc2O)n1` [Example 54, 5-bromo-2-(3,5-dimethyl-1H-pyrazol-1-yl)phenol]: the MIC was at most 2 µg/mL.

For the compound `Cc1nn(-c2ccc(Br)cc2O)c(C)c1Cl` [Example 55, 5-bromo-2-(4-chloro-3,5-dimethyl-1H-pyrazol-1-yl)phenol], the MIC was at most 2 µg/mL.

`Cc1nn(-c2ccc(Br)cc2O)c(C)c1C` [Example 56, 5-bromo-2-(3,4,5-trimethyl-1H-pyrazol-1-yl)phenol] yielded an MIC of at most 2 µg/mL.

As for `CC(=O)Oc1ccc(-n2nc(C)cc2C)c(O)c1` [Example 57, 4-(3,5-dimethyl-1H-pyrazol-1-yl)-3-hydroxyphenyl acetate], the MIC is 4 to 16 µg/mL.

As for `CC(=O)Oc1ccc(-n2nc(C)c(Cl)c2C)c(O)c1` [Example 58, 4-(4-chloro-3,5-dimethyl-1H-pyrazol-1-yl)-3-hydroxyphenyl acetate], the MIC is at most 2 µg/mL.

As for `CC(=O)Oc1ccc(-n2nc(C)c(C)c2C)c(O)c1` [Example 59, 3-hydroxy-4-(3,4,5-trimethyl-1H-pyrazol-1-yl)phenyl acetate], the MIC is 4 to 16 µg/mL.

As to `Cc1cc(C)n(-c2cc(Cl)c(C)cc2O)n1` [Example 61, 4-chloro-2-(3,5-dimethyl-1H-pyrazol-1-yl)-5-methylphenol], the MIC was in the range of 16 to 32 µg/mL (≈ 67.6 to 135 µM).

On to `Cc1nn(-c2ccc(O)cc2O)c(C)c1Cl` [Example 63, 4-(4-chloro-3,5-dimethyl-1H-pyrazol-1-yl)benzene-1,3-diol], for which the MIC was at most 2 µg/mL.
